ChEMBL document CHEMBL1201862, “PubChem BioAssay data set” (2004)
Activity calls are given as the source filed them.

How the values were obtained:
Leucine aminopeptidase = biological target: T1, Leucine aminopeptidase (Plasmodium falciparum 3D7, UniProt Q8IL11); assay: P. falciparum M17LAP inhibitors, primary screen, biochemical, fluorogenic H-Leu-NHMec substrate, 1536-well (AID 1619); type: functional
T1 sequence (Q8IL11 whole entry): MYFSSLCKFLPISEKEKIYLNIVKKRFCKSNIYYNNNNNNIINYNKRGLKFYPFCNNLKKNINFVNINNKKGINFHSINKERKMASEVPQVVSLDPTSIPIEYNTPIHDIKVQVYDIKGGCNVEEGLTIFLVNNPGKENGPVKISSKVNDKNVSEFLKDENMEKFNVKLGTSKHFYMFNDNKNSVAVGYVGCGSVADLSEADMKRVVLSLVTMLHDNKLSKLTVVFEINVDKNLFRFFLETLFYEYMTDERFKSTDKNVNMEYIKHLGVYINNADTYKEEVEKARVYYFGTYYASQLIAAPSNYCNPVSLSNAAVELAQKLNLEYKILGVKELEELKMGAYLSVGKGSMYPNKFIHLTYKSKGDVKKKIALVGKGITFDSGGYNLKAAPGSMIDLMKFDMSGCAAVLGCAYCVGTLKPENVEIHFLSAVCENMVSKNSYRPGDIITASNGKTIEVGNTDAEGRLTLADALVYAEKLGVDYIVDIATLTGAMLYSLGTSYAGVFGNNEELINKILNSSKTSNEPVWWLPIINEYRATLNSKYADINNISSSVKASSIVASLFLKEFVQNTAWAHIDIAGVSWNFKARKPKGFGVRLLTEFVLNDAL

[1] = biological target: T2, Small ubiquitin-related modifier 1 (Homo sapiens, UniProt P63165); assay: inhibitors of SUMO1 peptide binding, dose response, biochemical, fluorescence polarization, uHTS hits (AID 624382); type: functional; settings: read-out: IC50_Mean
T2 sequence (P63165 whole entry): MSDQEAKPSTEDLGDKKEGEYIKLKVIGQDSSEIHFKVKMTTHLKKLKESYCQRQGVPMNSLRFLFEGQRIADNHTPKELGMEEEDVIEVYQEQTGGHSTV

[2] = biological target: T3, Short transient receptor potential channel 4 (Mus musculus, UniProt Q9QUQ5); assay: mouse TRPC4 channel activators, dose response, cell-based, HEK293 TRPC4/mu-opioid, Fluo-4 calcium (AID 434937); type: functional
T3 sequence (Q9QUQ5 whole entry): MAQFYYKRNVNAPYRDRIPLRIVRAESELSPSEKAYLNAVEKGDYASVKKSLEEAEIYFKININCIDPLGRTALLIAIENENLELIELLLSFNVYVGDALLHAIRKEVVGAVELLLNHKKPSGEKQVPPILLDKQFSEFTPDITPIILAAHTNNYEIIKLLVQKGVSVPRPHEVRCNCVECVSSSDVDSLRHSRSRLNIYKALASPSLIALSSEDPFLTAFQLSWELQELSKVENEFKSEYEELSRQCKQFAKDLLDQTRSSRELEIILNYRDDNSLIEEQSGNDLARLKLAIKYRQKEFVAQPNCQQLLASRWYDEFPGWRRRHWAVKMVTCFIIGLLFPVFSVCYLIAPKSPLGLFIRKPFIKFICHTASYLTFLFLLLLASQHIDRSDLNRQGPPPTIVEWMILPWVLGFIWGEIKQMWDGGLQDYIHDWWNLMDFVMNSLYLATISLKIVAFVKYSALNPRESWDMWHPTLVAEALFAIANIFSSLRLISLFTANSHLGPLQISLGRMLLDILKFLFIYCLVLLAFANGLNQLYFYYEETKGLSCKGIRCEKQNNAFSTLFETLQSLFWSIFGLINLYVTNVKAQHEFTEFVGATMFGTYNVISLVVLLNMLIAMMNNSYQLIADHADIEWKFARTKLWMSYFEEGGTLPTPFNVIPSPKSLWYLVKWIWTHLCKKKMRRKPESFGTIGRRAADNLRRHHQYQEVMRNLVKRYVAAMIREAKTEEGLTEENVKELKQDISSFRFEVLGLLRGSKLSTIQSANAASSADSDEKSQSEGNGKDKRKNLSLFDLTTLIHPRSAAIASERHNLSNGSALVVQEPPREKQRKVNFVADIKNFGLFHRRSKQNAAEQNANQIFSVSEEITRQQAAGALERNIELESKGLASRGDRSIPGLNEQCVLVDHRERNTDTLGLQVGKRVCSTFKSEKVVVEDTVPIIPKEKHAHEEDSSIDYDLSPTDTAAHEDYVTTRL

[3] = biological target: T2, Small ubiquitin-related modifier 1; assay: inhibitors of SUMO1 partner interactions, dose response, biochemical, FRET (AID 624383); type: functional; settings: read-out: IC50_Mean
[4] = biological target: T4, Long-chain-fatty-acid--AMP ligase FadD28 (Mycobacterium tuberculosis, UniProt P9WQ59); assay: Fluorescence polarization aasay to screen for inhibitors that compete for the binding of FadD28 to a bisubstrate Measured in Biochemical System Using Plate Reader - 2147-01_Inhibitor_Dose_CherryPick_Activity.; type: functional, Mycobacterium tuberculosis H37Rv
T4 sequence (P9WQ59 whole entry): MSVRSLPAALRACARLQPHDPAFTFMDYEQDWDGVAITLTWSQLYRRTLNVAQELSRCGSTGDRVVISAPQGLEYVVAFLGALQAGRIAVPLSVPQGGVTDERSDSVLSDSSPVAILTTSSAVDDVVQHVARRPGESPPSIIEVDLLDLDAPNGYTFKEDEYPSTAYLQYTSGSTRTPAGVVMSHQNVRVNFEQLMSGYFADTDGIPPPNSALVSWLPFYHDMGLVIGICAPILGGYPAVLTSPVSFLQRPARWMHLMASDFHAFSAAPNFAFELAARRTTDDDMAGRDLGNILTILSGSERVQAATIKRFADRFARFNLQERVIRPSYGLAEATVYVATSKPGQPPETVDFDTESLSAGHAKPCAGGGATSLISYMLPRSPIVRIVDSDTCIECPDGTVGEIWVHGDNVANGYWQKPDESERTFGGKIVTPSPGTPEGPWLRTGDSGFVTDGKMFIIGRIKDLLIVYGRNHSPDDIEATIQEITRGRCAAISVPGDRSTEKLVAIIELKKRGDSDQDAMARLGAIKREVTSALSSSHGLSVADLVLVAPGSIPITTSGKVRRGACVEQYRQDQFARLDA

[5] = biological target: T5, Adenosylmethionine-8-amino-7-oxononanoate aminotransferase (Mycobacterium tuberculosis, UniProt P9WQ81); assay: Mycobacterium tuberculosis BioA enzyme inhibitor Measured in Biochemical System Using Plate Reader - 2163-02_Inhibitor_Dose_CherryPick_Activity.; type: functional, Mycobacterium tuberculosis UT205
T5 sequence (P9WQ81 whole entry): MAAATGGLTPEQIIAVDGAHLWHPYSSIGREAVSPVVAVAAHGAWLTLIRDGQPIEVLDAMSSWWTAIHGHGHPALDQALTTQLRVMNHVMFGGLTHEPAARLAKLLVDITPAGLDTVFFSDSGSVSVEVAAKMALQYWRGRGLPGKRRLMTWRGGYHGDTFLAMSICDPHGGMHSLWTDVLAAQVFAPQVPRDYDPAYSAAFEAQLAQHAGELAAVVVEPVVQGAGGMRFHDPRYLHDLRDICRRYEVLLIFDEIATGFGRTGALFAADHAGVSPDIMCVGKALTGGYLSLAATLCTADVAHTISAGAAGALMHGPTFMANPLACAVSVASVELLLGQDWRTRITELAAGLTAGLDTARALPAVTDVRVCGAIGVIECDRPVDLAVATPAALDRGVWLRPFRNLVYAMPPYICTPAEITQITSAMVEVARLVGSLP

[6] = biological target: T6, Histone-lysine N-methyltransferase NSD2 (Homo sapiens, UniProt O96028); type: biochemical
T6 sequence (O96028 whole entry): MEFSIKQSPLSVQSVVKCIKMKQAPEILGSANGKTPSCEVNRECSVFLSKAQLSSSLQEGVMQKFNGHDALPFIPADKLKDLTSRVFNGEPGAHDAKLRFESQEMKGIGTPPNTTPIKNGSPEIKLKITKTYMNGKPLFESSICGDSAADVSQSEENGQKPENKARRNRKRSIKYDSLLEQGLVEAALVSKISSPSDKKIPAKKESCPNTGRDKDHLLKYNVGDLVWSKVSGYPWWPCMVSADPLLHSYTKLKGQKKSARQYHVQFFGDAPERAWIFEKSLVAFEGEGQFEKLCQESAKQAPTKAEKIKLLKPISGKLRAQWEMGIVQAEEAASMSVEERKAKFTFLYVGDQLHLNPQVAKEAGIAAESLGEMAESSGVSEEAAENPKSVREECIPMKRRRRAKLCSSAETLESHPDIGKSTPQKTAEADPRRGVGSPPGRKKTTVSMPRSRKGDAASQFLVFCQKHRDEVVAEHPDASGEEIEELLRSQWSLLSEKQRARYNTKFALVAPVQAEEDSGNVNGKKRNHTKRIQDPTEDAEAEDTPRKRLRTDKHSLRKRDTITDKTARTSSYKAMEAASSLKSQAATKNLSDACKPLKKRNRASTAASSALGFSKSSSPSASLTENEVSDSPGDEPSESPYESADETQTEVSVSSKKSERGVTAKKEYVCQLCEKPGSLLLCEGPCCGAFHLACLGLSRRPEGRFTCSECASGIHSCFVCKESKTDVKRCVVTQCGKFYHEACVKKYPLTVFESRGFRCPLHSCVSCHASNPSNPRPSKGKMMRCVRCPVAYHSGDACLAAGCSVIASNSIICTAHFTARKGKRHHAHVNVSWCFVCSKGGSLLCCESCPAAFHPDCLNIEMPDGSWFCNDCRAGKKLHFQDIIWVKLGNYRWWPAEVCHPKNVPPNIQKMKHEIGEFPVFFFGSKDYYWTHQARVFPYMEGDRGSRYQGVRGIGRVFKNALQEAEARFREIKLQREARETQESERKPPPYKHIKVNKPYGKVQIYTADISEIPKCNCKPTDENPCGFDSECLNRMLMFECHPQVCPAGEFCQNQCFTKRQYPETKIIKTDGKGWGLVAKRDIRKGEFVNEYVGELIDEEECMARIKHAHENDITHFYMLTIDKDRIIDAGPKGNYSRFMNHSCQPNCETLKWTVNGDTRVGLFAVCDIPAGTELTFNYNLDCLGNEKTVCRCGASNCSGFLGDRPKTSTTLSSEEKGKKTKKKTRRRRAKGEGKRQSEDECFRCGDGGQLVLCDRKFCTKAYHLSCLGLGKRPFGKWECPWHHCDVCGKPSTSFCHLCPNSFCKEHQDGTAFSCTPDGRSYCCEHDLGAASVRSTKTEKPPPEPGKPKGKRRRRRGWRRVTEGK

Genome polyprotein = Genome polyprotein (dengue virus type 2, UniProt P29990); assay: Dengue-2 NS5 methyltransferase inhibitors, primary screen, biochemical, confirmation dose response (AID 588689); type: functional
Sequence of Genome polyprotein (P29990 2492-3391 limits assumed): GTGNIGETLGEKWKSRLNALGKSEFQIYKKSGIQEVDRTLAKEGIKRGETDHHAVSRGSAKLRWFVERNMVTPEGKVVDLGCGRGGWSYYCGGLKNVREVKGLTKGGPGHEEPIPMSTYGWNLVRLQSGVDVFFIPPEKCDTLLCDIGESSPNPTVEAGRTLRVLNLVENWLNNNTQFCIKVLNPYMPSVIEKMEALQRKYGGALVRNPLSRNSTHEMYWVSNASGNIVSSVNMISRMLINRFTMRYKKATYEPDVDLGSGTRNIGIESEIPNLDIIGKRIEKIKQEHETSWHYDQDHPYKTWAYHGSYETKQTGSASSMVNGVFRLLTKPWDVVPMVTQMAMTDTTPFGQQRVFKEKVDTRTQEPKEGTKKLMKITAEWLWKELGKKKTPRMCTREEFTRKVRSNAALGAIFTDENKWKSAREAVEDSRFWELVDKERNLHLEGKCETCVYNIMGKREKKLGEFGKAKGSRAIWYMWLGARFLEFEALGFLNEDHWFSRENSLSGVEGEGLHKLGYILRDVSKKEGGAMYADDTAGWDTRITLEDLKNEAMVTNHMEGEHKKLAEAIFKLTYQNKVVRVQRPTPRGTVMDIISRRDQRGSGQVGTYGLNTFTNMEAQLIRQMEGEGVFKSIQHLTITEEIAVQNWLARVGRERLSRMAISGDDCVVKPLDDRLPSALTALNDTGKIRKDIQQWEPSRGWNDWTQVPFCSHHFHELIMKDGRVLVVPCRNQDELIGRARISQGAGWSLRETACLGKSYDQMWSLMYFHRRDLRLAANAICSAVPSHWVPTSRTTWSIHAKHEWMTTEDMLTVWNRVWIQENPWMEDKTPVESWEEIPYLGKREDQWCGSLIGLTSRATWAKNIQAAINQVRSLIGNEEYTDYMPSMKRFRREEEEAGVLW

[7] = biological target: T7, High affinity choline transporter 1 (Homo sapiens, UniProt Q9GZV3); assay: CHT inhibitors, dose response, cell-based, 5-point CRC, membrane potential dye (AID 504840); type: functional
T7 sequence (Q9GZV3 whole entry): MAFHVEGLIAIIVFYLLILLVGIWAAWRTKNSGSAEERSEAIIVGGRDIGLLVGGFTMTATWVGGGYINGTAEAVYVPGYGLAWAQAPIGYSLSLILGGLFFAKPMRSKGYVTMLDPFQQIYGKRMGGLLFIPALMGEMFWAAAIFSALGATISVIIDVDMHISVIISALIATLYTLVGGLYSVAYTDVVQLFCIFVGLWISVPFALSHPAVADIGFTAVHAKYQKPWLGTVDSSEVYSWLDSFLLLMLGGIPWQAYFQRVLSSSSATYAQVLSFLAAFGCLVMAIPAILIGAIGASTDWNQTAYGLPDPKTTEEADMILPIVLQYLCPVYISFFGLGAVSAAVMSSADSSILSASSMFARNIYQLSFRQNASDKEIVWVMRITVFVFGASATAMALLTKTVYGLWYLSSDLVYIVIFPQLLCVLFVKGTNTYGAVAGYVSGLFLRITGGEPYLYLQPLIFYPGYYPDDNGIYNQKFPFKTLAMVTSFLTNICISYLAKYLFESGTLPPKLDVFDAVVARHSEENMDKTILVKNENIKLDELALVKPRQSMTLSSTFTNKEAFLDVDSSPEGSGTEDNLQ

Fatty acid synthase [8] = biological target: T8, Fatty acid synthase (Homo sapiens, UniProt P49327); assay: FAS thioesterase domain inhibitors, dose response, biochemical, kinetic fluorescence intensity (AID 624326); type: functional;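 also: rate of fluorescence rise from hydrolysis of a fluorogenic O-methyl fluorescein ester substrate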
T8 sequence (P49327 whole entry, the tested form may be a part): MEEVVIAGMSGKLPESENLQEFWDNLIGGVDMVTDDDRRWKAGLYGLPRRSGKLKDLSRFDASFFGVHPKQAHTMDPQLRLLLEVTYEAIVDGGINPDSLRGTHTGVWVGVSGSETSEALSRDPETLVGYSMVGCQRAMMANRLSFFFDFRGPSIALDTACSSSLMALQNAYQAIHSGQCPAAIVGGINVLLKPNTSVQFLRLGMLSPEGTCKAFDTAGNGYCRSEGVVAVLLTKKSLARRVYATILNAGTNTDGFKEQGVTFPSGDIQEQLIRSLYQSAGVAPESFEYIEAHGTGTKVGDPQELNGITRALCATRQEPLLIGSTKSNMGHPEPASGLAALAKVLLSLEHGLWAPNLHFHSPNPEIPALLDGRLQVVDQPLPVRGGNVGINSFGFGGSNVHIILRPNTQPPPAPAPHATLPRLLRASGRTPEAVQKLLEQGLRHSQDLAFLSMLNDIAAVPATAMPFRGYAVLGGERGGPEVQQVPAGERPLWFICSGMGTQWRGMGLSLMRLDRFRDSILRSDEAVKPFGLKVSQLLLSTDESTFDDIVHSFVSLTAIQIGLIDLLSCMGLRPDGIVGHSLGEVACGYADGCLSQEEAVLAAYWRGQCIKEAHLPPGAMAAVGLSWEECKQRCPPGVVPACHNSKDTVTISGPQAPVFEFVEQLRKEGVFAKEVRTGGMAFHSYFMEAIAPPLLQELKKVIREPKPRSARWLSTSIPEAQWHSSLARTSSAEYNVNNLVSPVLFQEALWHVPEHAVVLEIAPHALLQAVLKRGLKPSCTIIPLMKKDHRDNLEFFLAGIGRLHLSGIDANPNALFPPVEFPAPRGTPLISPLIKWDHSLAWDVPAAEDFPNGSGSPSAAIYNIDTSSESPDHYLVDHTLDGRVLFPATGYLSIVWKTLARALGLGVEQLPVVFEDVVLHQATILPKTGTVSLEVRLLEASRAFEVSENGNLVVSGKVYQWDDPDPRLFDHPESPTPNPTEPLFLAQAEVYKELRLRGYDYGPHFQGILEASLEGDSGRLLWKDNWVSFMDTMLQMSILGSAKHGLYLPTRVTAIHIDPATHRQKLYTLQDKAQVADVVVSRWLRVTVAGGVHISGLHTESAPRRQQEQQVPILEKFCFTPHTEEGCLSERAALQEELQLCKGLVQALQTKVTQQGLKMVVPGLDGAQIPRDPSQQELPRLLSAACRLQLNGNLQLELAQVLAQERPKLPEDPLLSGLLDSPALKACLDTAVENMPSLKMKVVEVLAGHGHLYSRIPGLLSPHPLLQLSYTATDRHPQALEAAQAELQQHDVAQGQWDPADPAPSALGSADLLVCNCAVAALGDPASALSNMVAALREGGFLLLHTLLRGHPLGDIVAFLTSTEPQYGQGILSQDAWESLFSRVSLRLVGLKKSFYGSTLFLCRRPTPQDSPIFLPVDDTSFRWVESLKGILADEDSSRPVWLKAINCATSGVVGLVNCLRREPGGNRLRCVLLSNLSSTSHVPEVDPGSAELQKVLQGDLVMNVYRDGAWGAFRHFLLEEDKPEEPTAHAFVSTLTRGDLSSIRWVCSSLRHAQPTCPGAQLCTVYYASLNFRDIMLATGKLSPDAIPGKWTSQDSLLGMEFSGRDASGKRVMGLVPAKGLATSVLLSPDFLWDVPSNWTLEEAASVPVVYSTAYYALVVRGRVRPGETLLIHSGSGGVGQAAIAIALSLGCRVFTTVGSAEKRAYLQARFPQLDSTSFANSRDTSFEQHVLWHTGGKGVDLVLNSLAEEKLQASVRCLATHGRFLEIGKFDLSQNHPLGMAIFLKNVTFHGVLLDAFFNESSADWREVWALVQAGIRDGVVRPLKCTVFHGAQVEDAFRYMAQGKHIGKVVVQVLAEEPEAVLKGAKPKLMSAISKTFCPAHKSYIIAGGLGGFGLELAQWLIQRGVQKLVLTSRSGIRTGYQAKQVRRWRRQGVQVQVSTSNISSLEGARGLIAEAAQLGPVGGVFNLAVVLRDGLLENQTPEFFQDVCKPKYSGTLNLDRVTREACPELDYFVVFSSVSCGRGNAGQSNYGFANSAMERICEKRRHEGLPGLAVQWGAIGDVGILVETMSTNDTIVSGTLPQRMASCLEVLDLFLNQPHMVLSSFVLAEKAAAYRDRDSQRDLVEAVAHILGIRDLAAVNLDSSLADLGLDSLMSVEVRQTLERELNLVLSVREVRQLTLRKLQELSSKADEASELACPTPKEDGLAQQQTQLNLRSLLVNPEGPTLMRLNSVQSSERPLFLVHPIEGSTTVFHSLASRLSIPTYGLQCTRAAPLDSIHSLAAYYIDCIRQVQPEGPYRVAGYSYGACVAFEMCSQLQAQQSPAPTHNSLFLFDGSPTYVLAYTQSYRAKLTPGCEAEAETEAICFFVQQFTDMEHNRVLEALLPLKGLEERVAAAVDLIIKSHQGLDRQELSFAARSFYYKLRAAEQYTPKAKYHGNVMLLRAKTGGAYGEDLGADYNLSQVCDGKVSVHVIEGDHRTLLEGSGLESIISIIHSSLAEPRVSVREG

Fatty acid synthase [9] = biological target: T8, Fatty acid synthase; assay: FAS thioesterase domain inhibitors, dose response, biochemical, endpoint fluorescence intensity, uHTS hits (AID 624327); type: functional;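 also: fluorescence from hydrolysis of an O-methyl fluorescein acyl ester substrate by the enzyme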
Albumin = Albumin (Bos taurus, UniProt P02769); assay: Counterscreen for inhibitors of T-cell receptor (TCR)-CD3 interaction: Fluorescence-based biochemical high throughput dose response assay to identify inhibitors of T-cell receptor (TCR)-CD3 interaction using a TAMRA-labeled BSA probe.; type: functional
Sequence of Albumin (P02769 whole entry): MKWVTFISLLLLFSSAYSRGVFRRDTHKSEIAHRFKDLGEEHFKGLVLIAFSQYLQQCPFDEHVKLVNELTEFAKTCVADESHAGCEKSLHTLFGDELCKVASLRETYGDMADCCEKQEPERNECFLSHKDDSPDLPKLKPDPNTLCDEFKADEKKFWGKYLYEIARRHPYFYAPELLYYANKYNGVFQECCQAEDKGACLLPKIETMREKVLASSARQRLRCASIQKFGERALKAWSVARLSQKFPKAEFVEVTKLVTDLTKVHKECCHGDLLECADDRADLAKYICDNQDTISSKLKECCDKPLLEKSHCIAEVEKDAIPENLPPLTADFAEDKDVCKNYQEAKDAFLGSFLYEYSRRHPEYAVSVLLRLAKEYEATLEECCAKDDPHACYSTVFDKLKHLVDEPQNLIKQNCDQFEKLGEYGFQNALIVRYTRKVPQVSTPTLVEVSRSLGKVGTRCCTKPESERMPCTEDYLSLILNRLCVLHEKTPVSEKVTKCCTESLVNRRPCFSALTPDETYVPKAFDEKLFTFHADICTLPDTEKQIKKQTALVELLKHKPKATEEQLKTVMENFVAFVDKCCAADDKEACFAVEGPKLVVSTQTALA

Cc1onc(-c2ccccc2)c1C(=O)NNC(=S)NC(=O)c1ccc(F)cc1
IC50 (Leucine aminopeptidase): 79.4 µM (active) | IC50 [1]: > 66.6 µM (inactive) | EC50 [2]: 5.96 µM (active) | IC50 [3]: 100 µM (inactive)

CC(=O)c1cccc(NC(=O)NC2CCCCCCC2)c1
AC50 [4]: > 100 µM (inactive)

O=C(O)CCS(=O)(=O)c1nc(-c2cccs2)cc(C(F)(F)F)n1
AC50 [5]: 15.6 µM (active)

CNCCCC1Sc2ccccc2Oc2ccccc21 (stereo not given)
AC50 [6]: 9.84 µM (active)

CCCn1nc(NS(=O)(=O)c2cccc3nonc23)c2cc3cccc(C)c3nc21
AC50 [4]: > 100 µM (inactive) | IC50 (Genome polyprotein): 39.8 µM (active) | IC50 [7]: 3.54 µM (active)

CCOCCCNC(=O)CSc1nc2nc(C)c(Cc3ccccc3)c(C)n2n1
AC50 [5]: 2.18 µM (active)

O=C(CC(C(=O)O)c1ccc(Cl)cc1)c1ccc(Cl)c(Cl)c1 (stereo not given)
IC50 (Fatty acid synthase [8]): 4.21 µM (active) | IC50 (Fatty acid synthase [9]): 2.11 µM (active)

C=CCn1c(SCc2cc([N+](=O)[O-])cc3c2OCOC3)nc2cc(C(=O)O)ccc2c1=O
IC50 (Fatty acid synthase [8]): 1.6 µM (active) | IC50 (Fatty acid synthase [9]): 2.57 µM (active)

CSc1ncc(Cl)c(C(=O)Nc2nnc(SC/C=C/c3ccccc3)s2)n1
AC50 [4]: > 100 µM (inactive)

COc1ccc(C(=O)NC(CC(=O)O)c2cc([N+](=O)[O-])ccc2Cl)c(SC)c1 (stereo not given)
IC50 (Fatty acid synthase [8]): 8.79 µM (active) | IC50 (Fatty acid synthase [9]): 7.33 µM (active)

C=CCNC(=O)/C(=C\c1ccc(OC)cc1)NC(=O)c1ccc([N+](=O)[O-])cc1
IC50 (Fatty acid synthase [8]): 2.21 µM (active) | IC50 (Fatty acid synthase [9]): 2.93 µM (active)

Nn1c(SCCOc2ccccc2)nnc1-c1cccnc1
AC50 [5]: 1.33 µM (active)

O=C(O)CCc1ccc(-c2ccc(Cl)cc2)n1Cc1ccco1
AC50 [4]: 21.8 µM (active)

Cc1cc(NC(=O)CN(C)S(=O)(=O)c2c[nH]cn2)ccc1Br
AC50 [5]: 19 µM (active)

Cc1cccc(C(=O)NNC(=O)c2ccc(NS(=O)(=O)c3cccs3)cc2)c1C
AC50 [4]: 43.8 µM (active)

C=CCNC(=S)NNC(=O)c1cccn(Cc2cccc(Cl)c2)c1=O
IC50 (Albumin): > 94.1 µM (inactive)
